# Results reported in ChEMBL document CHEMBL3885861, “Open TG-GATES”.
# Species on record: Rattus norvegicus
# Test: Open TG-GATES - Regimen: Daily Repeat
# Assay type: toxicity, organism-based, Sprague-Dawley
# Design: regimen Daily Repeat, gender Male, age 6 weeks
# Details: in vivo, po, route gavage; for gamma-GTP / ALP / ALT / AST / BUN / CRE / Ca / Cl / DBIL / GLC / IP / K / LDH / Na / PL / RALB / TBIL / TC / TG / TP: tissue Plasma; for APTT / Bas / Eos / Fbg / Ht / Lym / MCH / MCHC / MCV / Mono / Neu / PT / Plat / RBC / Ret / WBC: tissue Blood; for KIDNEY_L / KIDNEY_R / KIDNEY_TOTAL: tissue Kidney; for LIVER: tissue Liver
# [1] = 30 mg/kg, 72 h, dose level Middle, time 3 day
# [2] = 30 mg/kg, […], dose level Middle, time 7 day
# [3] = 30 mg/kg, […], dose level Middle, time 14 day
# [4] = 30 mg/kg, […], dose level Middle, time 28 day
smiles,measurement,setting,value
Cc1cccc(Nc2cc(Cl)nc(SCC(=O)O)n2)c1C [PIRINIXIC ACID],gamma-GTP,"10 mg/kg, […], dose level Low, time 28 day",1.2 IU/L
same,TERMINAL_BW,[1],229.5 g
same,APTT,[1],15.8 s
same,Bas,[1],0%
same,Eos,[1],0.8%
same,Fbg,[1],199.8 mg/dL
same,Ht,[1],39.5%
same,Lym,[1],71.6%
same,MCH,[1],21.7 pg
same,MCHC,[1],34.3%
same,MCV,[1],63.4 fL
same,Mono,[1],3.2%
same,Neu,[1],23.8%
same,PT,[1],12.4 s
same,Plat,[1],106.4 x10_4/uL
same,RBC,[1],623.8 x10_4/ul
same,Ret,[1],5.5%
same,WBC,[1],85.4 x10_2/uL
same,KIDNEY_L,[1],1 g
same,KIDNEY_R,[1],1 g
same,KIDNEY_TOTAL,[1],2 g
same,LIVER,[1],15.1 g
same,ALP,[1],1953.2 IU/L
same,ALT,[1],77.6 IU/L
same,AST,[1],112 IU/L
same,BUN,[1],14 mg/dL
same,CRE,[1],0.2 mg/dL
same,Ca,[1],10.7 mg/dL
same,Cl,[1],106.4 meq/L
same,DBIL,[1],0.02 mg/dL
same,GLC,[1],192.6 mg/dL
same,IP,[1],7.1 mg/dL
same,K,[1],4 meq/L
same,LDH,[1],167 IU/L
same,Na,[1],143.6 meq/L
same,PL,[1],106.2 mg/dL
same,RALB,[1],2.6 g/dL
same,TBIL,[1],0.026 mg/dL
same,TC,[1],51 mg/dL
same,TG,[1],31.4 mg/dL
same,TP,[1],5.2 g/dL
same,gamma-GTP,[1],1 IU/L
same,TERMINAL_BW,[2],270.6 g
same,TERMINAL_BW,[3],309.3 g
same,TERMINAL_BW,[4],373.2 g
same,APTT,[2],18 s
same,Bas,[2],0%
same,Eos,[2],0.8%
same,Fbg,[2],230.8 mg/dL
same,Ht,[2],37.9%
same,Lym,[2],76.6%
same,MCH,[2],22.1 pg
same,MCHC,[2],34%
same,MCV,[2],64.9 fL
same,Mono,[2],3.2%
same,Neu,[2],19%
same,PT,[2],12.7 s
same,Plat,[2],115.8 x10_4/uL
same,RBC,[2],585.4 x10_4/ul
same,Ret,[2],5.5%
same,WBC,[2],114.2 x10_2/uL
same,APTT,[3],16.4 s
same,Bas,[3],0%
same,Eos,[3],1%
same,Fbg,[3],214 mg/dL
same,Ht,[3],38.2%
same,Lym,[3],76.8%
same,MCH,[3],21.1 pg
same,MCHC,[3],34.8%
same,MCV,[3],60.5 fL
same,Mono,[3],3.6%
same,Neu,[3],18.2%
same,PT,[3],12.8 s
same,Plat,[3],136.3 x10_4/uL
same,RBC,[3],631.8 x10_4/ul
same,Ret,[3],4.3%
same,WBC,[3],121.9 x10_2/uL
same,APTT,[4],15.2 s
same,Bas,[4],0%
same,Eos,[4],1%
same,Fbg,[4],223.8 mg/dL
same,Ht,[4],39.5%
same,Lym,[4],78%
same,MCH,[4],19.6 pg
same,MCHC,[4],34.9%
same,MCV,[4],56.2 fL
same,Mono,[4],3%
same,Neu,[4],17.6%
same,PT,[4],12.4 s
same,RBC,[4],703.4 x10_4/ul
same,Ret,[4],3.3%
same,WBC,[4],108.3 x10_2/uL
same,KIDNEY_L,[2],1.2 g
same,KIDNEY_R,[2],1.1 g
same,KIDNEY_TOTAL,[2],2.3 g
same,KIDNEY_L,[3],1.4 g
same,KIDNEY_R,[3],1.3 g
same,KIDNEY_TOTAL,[3],2.7 g
same,KIDNEY_L,[4],1.5 g
same,KIDNEY_R,[4],1.5 g
same,KIDNEY_TOTAL,[4],3 g
same,LIVER,[2],21.7 g
same,LIVER,[3],25.2 g
same,LIVER,[4],29.4 g
same,ALP,[2],1797.4 IU/L
same,ALT,[2],53 IU/L
same,AST,[2],71.8 IU/L
same,BUN,[2],19.4 mg/dL
same,CRE,[2],0.2 mg/dL
same,Ca,[2],11.2 mg/dL
same,Cl,[2],103 meq/L
same,DBIL,[2],0.014 mg/dL
same,GLC,[2],191.8 mg/dL
same,IP,[2],7 mg/dL
same,K,[2],4.1 meq/L
same,LDH,[2],180.2 IU/L
same,Na,[2],142.2 meq/L
same,PL,[2],139 mg/dL
same,RALB,[2],2.9 g/dL
same,TBIL,[2],0.032 mg/dL
same,TC,[2],71.6 mg/dL
same,TG,[2],46 mg/dL
same,TP,[2],6.1 g/dL
same,gamma-GTP,[2],1 IU/L
same,ALP,[3],1895.2 IU/L
same,ALT,[3],48.2 IU/L
same,AST,[3],66.6 IU/L
same,BUN,[3],19.2 mg/dL
same,CRE,[3],0.2 mg/dL
same,Ca,[3],10.5 mg/dL
same,Cl,[3],102.6 meq/L
same,DBIL,[3],0.016 mg/dL
same,GLC,[3],194.6 mg/dL
same,IP,[3],7.1 mg/dL
same,K,[3],3.9 meq/L
same,LDH,[3],114 IU/L
same,Na,[3],141.8 meq/L
same,PL,[3],144.4 mg/dL
same,RALB,[3],2.9 g/dL
same,TBIL,[3],0.034 mg/dL
same,TC,[3],69.6 mg/dL
same,TG,[3],51.6 mg/dL
same,TP,[3],6.1 g/dL
same,gamma-GTP,[3],1.4 IU/L
same,ALP,[4],1970.8 IU/L
same,ALT,[4],47.2 IU/L
same,AST,[4],62.4 IU/L
same,BUN,[4],18.2 mg/dL
same,CRE,[4],0.2 mg/dL
same,Ca,[4],10.7 mg/dL
same,Cl,[4],102.8 meq/L
same,DBIL,[4],0.012 mg/dL
same,GLC,[4],189.2 mg/dL
same,IP,[4],7.2 mg/dL
same,K,[4],3.7 meq/L
same,LDH,[4],111.4 IU/L
same,Na,[4],141.6 meq/L
same,PL,[4],149 mg/dL
same,RALB,[4],3 g/dL
same,TBIL,[4],0.05 mg/dL
same,TC,[4],70.6 mg/dL
same,TG,[4],55.4 mg/dL
same,TP,[4],6.5 g/dL
